ChEMBL document CHEMBL5528058 (J Med Chem, 2024)
Calls of active or inactive are those of the source. No cut-off for these calls is given here.

Legend:
[1] = molecular target: Programmed cell death protein 1/Programmed cell death 1 ligand 1 (Homo sapiens, UniProt Q9NZQ7)
Description: Inhibition of human PD-1/PD-L1 interaction by HTRF analysis

[2] = molecular target: Programmed cell death protein 1 (Homo sapiens, UniProt Q15116); test: Inhibition of human recombinant PD-1 by HTRF analysis
[3] = system: 4T1; test: Antitumor activity against mouse 4T1 cells implanted in BALB/c mouse assessed as increase in percentage of CD3+ CD4+ cells in tumor at 15 mg/kg, ip qd administered for 14 days by flow cytometry analysis (reference value: 0.32%); format: functional; conditions: time 14 day
[4] = system: MDA-MB-231; test: Antiproliferative activity against human MDA-MB-231 cells as cell killing incubated for 6 days by CCK-8 assay; conditions: MDA-MB-231, 144 h
[5] = system: 4T1; test: Antitumor activity against mouse 4T1 cells implanted in BALB/c mouse assessed as increase in percentage of CD3+ CD8+ cells in spleen at 15 mg/kg, ip qd administered for 14 days by flow cytometry analysis (reference value: 3.34%); format: functional; conditions: time 14 day
[6] = system: 4T1; test: Antitumor activity against mouse 4T1 cells implanted in BALB/c mouse assessed as increase in percentage of CD3+ CD8+ cells in tumor at 15 mg/kg, ip qd administered for 14 days by flow cytometry analysis (reference value: 0.64%); format: functional; conditions: time 14 day
[7] = system: Jurkat; test: Antiproliferative activity against human Jurkat cells as cell killing incubated for 6 days by CCK-8 assay; conditions: 144 h
[8] = system: 4T1; test: Antiproliferative activity against mouse 4T1 cells as cell killing incubated for 6 days by CCK-8 assay; conditions: 4T1, 144 h
[9] = system: 4T1; test: Antitumor activity against mouse 4T1 cells implanted in BALB/c mouse assessed as increase in percentage of CD3+ CD4+ cells in spleen at 15 mg/kg, ip qd administered for 14 days by flow cytometry analysis (reference value: 6.72%); format: functional; conditions: time 14 day
[10] = system: 4T1; test: Antitumor activity against mouse 4T1 cells implanted in BALB/c mouse assessed as tumor growth inhibition at 5 mg/kg, IG administered twice a day for 14 days; conditions: 4T1, po, 336 h, read-out: TGI
[11] = Half life in ICR mouse at 1 mg/kg, iv measured upto 24 hrs by LCMS analysis; format: ADME, organism-based; conditions: in vivo
[12] = system: 4T1; test: Antitumor activity against mouse 4T1 cells implanted in BALB/c mouse assessed as reduction in ki-67 expression at 10 mg/kg, IG administered twice a day for 14 days by immunohistochemistry analysis; format: functional, organism-based; conditions: time 14.0 day
[13] = Toxicity in BALB/c mouse implanted with mouse 4T1 cells assessed as morphological changes in kidney at 5 to 10 mg/kg, IG administered twice a day for 14 days by H and E staining based analysis; format: organism-based; conditions: in vivo, po, 336 h, dose 5-10 mg/kg, time 14 day
[14] = Half life in ICR mouse at 10 mg/kg, IG measured upto 24 hrs by LCMS analysis; format: ADME, organism-based; conditions: in vivo, po
[15] = Toxicity in BALB/c mouse implanted with mouse 4T1 cells assessed as morphological changes in spleen at 5 to 10 mg/kg, IG administered twice a day for 14 days by H and E staining based analysis; format: organism-based; conditions: in vivo, po, 336 h, dose 5-10 mg/kg, time 14 day
[16] = Cmax in ICR mouse at 10 mg/kg, IG measured upto 24 hrs by LCMS analysis; format: ADME, organism-based; conditions: in vivo, po
[17] = Acute toxicity in ICR mouse at 250 to 500 mg/kg, IG measured for 7 days; format: organism-based; conditions: in vivo, po, 168 h, dose 250-500 mg/kg, time 7 day
[18] = system: 4T1; test: Antitumor activity against mouse 4T1 cells implanted in BALB/c mouse assessed as tumor growth inhibition at 10 mg/kg, IG administered twice a day for 14 days; conditions: 4T1, po, 336 h, read-out: TGI
[19] = AUC (0 to t) in ICR mouse at 10 mg/kg, IG measured upto 24 hrs by LCMS analysis; format: ADME, organism-based; conditions: in vivo, po
[20] = AUC (0 to infinity) in ICR mouse at 10 mg/kg, IG measured upto 24 hrs by LCMS analysis; format: ADME, organism-based; conditions: in vivo, po
[21] = Toxicity in BALB/c mouse implanted with mouse 4T1 cells assessed as body weight loss at 5 to 10 mg/kg, IG administered twice a day for 14 days; format: organism-based; conditions: in vivo, po, 336 h, dose 5-10 mg/kg, time 14 day
[22] = Toxicity in BALB/c mouse implanted with mouse 4T1 cells assessed as morphological changes in liver at 5 to 10 mg/kg, IG administered twice a day for 14 days by H and E staining based analysis; format: organism-based; conditions: in vivo, po, 336 h, dose 5-10 mg/kg, time 14 day
[23] = system: MDA-MB-231; test: Antitumor immunity activity against human MDA-MB-231 cells co-cultured with human PBMC assessed as cell killing incubated for 12 hrs; format: functional, cell-based
[24] = Oral bioavailability in ICR mouse at 1 mg/kg measured upto 24 hrs by LCMS analysis; format: ADME, organism-based; conditions: in vivo
[25] = Toxicity in BALB/c mouse implanted with mouse 4T1 cells assessed as morphological changes in lung at 5 to 10 mg/kg, IG administered twice a day for 14 days by H and E staining based analysis; format: organism-based; conditions: in vivo, po, 336 h, dose 5-10 mg/kg, time 14 day
[26] = MRT (0 to infinity) in ICR mouse at 10 mg/kg, IG measured upto 24 hrs by LCMS analysis; format: ADME, organism-based; conditions: in vivo, po
[27] = Clearance in ICR mouse at 1 mg/kg, iv measured upto 24 hrs by LCMS analysis; format: ADME, organism-based; conditions: in vivo
[28] = MRT (0 to t) in ICR mouse at 1 mg/kg, iv measured upto 24 hrs by LCMS analysis; format: ADME, organism-based; conditions: in vivo
[29] = Tmax in ICR mouse at 10 mg/kg, IG measured upto 24 hrs by LCMS analysis; format: ADME, organism-based; conditions: in vivo, po
[30] = MRT (0 to infinity) in ICR mouse at 1 mg/kg, iv measured upto 24 hrs by LCMS analysis; format: ADME, organism-based; conditions: in vivo
[31] = Toxicity in BALB/c mouse implanted with mouse 4T1 cells assessed as morphological changes in tumor at 5 to 10 mg/kg, IG administered twice a day for 14 days by H and E staining based analysis; format: organism-based; conditions: in vivo, po, 336 h, dose 5-10 mg/kg, time 14 day
[32] = system: PBMC; test: Induction of cell death in human PBMC cells incubated for 6 days by CCK-8 assay; format: functional, cell-based; conditions: time 6.0 day
[33] = MRT (0 to t) in ICR mouse at 10 mg/kg, IG measured upto 24 hrs by LCMS analysis; format: ADME, organism-based; conditions: in vivo, po
[34] = molecular target: Programmed cell death 1 ligand 1 (Mus musculus, UniProt Q9EP73); test: Binding affinity to his-tagged mouse PD-L1 expressed in HEK293 cells assessed as dissociation constant by SPR analysis
Sequence of Programmed cell death 1 ligand 1 (Q9EP73 whole entry): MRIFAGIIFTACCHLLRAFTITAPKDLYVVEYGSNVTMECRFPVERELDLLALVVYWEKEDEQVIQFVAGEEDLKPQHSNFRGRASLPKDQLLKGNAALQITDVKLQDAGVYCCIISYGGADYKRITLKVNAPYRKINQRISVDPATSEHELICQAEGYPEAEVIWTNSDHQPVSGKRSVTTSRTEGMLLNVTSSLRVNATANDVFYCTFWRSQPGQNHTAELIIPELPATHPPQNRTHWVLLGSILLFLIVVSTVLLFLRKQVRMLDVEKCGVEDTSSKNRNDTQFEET

[35] = AUC (0 to infinity) in ICR mouse at 1 mg/kg, iv measured upto 24 hrs by LCMS analysis; format: ADME, organism-based; conditions: in vivo
[36] = system: MDA-MB-231; test: Induction of cell death in human MDA-MB-231 cells incubated for 6 days by CCK-8 assay; format: functional, cell-based; conditions: time 6.0 day
[37] = Toxicity in BALB/c mouse implanted with mouse 4T1 cells assessed as side effect at 5 to 10 mg/kg, IG administered twice a day for 14 days; format: organism-based; conditions: in vivo, po, 336 h, dose 5-10 mg/kg, time 14 day
[38] = AUC (0 to t) in ICR mouse at 1 mg/kg, iv measured upto 24 hrs by LCMS analysis; format: ADME, organism-based; conditions: in vivo
[39] = Toxicity in BALB/c mouse implanted with mouse 4T1 cells assessed as morphological changes in heart at 5 to 10 mg/kg, IG administered twice a day for 14 days by H and E staining based analysis; format: organism-based; conditions: in vivo, po, 336 h, dose 5-10 mg/kg, time 14 day

Sequence of Programmed cell death protein 1/Programmed cell death 1 ligand 1 (Q15116 whole entry): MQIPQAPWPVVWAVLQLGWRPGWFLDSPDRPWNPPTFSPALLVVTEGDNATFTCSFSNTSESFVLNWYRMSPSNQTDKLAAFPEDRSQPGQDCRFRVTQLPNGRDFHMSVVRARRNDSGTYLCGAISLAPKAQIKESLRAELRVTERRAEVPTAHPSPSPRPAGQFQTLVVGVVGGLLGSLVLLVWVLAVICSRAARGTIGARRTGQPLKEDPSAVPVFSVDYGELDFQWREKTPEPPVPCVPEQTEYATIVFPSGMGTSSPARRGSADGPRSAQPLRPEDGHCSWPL
Sequence of Programmed cell death protein 1/Programmed cell death 1 ligand 1 (Q9NZQ7 whole entry): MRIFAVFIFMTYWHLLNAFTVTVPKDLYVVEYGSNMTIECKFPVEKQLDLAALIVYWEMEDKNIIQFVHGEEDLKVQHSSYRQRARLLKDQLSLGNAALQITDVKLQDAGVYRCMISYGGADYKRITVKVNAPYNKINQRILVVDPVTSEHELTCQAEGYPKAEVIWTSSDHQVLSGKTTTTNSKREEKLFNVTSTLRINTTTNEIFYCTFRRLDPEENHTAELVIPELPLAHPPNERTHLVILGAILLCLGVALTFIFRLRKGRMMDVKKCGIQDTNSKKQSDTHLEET
Sequence of Programmed cell death protein 1 (Q15116 whole entry): as the sequence (Q15116 whole entry) above

CC(C)OC(=O)CN1CCc2nc(OCc3cccc(-c4ccccc4F)c3Cl)ccc2C1
IC50 [1]: 436 nM

COC(=O)CN1CCc2nc(OCc3cccc(-c4ccccc4F)c3Cl)ccc2C1
IC50 [1]: 369 nM

Cc1c(COc2ccc3c(n2)CCN(CCO)C3)cccc1-c1ccccc1F
IC50 [1]: 170 nM

NC(=O)CN1CCc2nc(OCc3cccc(-c4ccccc4F)c3Cl)ccc2C1
IC50 [1]: 157 nM

Cc1c(Nc2nccc3cc(CN4CC[C@@H](O)C4)cnc23)cccc1-c1cccc(-c2nc3ccc(CN4CC[C@@H](C(=O)O)C4)c(C#N)c3o2)c1C
IC50 [2]: 3.1 nM

OCCN1CCc2nc(OCc3cccc(-c4ccccc4Cl)c3Cl)ccc2C1
IC50 [1]: 95.1 nM

CCOC(=O)C(C)N1CCc2nc(OCc3cccc(-c4ccccc4F)c3Cl)ccc2C1 (centres undefined)
IC50 [1]: 592 nM

O=C(Nc1cccc(-c2cccc(F)c2F)c1Cl)c1ccc2c(n1)CCN(CCO)C2
IC50 [1]: 20.1 nM

CC(C)Oc1cccc(-c2cccc(NC(=O)c3ccc4c(n3)CCN(CCO)C4)c2Cl)c1F
IC50 [1]: 83.5 nM

N#Cc1cccc(-c2cccc(NC(=O)c3ccc4c(n3)CCN(CCO)C4)c2Cl)c1F
IC50 [1]: 58.8 nM

CCOC(=O)CN1CCc2nc(C(=O)Nc3cccc(-c4cccc(Cl)c4F)c3Cl)ccc2C1
IC50 [1]: > 1000 nM

CCOC(=O)CN1CCc2nc(C(=O)Nc3cccc(-c4cccc(OC(C)C)c4F)c3Cl)ccc2C1
IC50 [1]: > 1000 nM

Cc1ccccc1-c1cccc(COc2ccc3c(n2)CCN(CCO)C3)c1C
IC50 [1]: 406 nM

CCOC(=O)CCN1CCc2nc(OCc3cccc(-c4ccccc4F)c3Cl)ccc2C1
IC50 [1]: 241 nM

O=C(Nc1cccc(-c2ccccc2F)c1Cl)c1ccc2c(n1)CCN(CCO)C2
IC50 [1]: 21.6 nM

Cc1c(COc2ccc3c(n2)CCN(CCO)C3)cccc1-c1ccccc1
IC50 [1]: 227 nM

COc1nc(OCc2cccc(-c3ccccc3)c2C)ccc1CNCCNC(C)=O
Activity [3]: 0.58%
IC50 [4]: 19300 nM
Activity [5]: 2.52%
Activity [6]: 1.24%
IC50 [7]: 4330 nM
IC50 [8]: 5200 nM
Activity [9]: 5.4%

OCCN1CCc2nc(OCc3cccc(-c4ccccc4F)c3F)ccc2C1
IC50 [1]: 105 nM

OCCN1CCc2nc(OCc3cccc(-c4ccccc4F)c3Cl)ccc2C1
IC50 [1]: 19.8 nM

O=C(Nc1cccc(-c2cccc(Cl)c2F)c1Cl)c1ccc2c(n1)CCN(CCO)C2
IC50 [1]: 24.2 nM

CCOC(=O)CN1CCc2nc(C(=O)Nc3cccc(-c4cccc(C#N)c4F)c3Cl)ccc2C1
IC50 [1]: > 1000 nM

CCOC(=O)CN1CCc2nc(C(=O)Nc3cccc(-c4cccc(F)c4F)c3Cl)ccc2C1
IC50 [1]: 33800 nM

O=C(O)CN1CCc2nc(OCc3cccc(-c4ccccc4F)c3Cl)ccc2C1
inhibition in vivo at 5 mg/kg [10]: 49%
half-life [11]: 3.51 h
Activity [12]: Active
Activity [13]: Non-Toxic
half-life [14]: 4.95 h
Activity [15]: Non-Toxic
Cmax [16]: 1950 ng/mL
Activity [17]: Non-Toxic
inhibition in vivo at 10 mg/kg [18]: 66%
AUC(0-t) at 24 h [19]: 10200 ng·h/mL
AUC(0-inf) [20]: 10500 ng·h/mL
IC50 [4]: 15400 nM
Activity [21]: Non-Toxic
Activity [22]: Non-Toxic
Activity [23]: Active
bioavailability [24]: 58%
Activity [25]: Non-Toxic
MRT inf [26]: 7.35 h
clearance [27]: 9.55 mL/min/kg
MRT last at 24 h [28]: 3.7 h
Tmax [29]: 0.25 h
MRT inf [30]: 3.86 h
Activity [31]: Toxic
Activity [32]: Active
MRT last at 24 h [33]: 6.05 h
IC50 [7]: 53900 nM
IC50 [8]: 77500 nM
Kd [34]: 392000 nM
AUC(0-inf) [35]: 1820 ng·h/mL
Activity [36]: Active
Activity [37]: Non-Toxic
AUC(0-t) at 24 h [38]: 1800 ng·h/mL
Activity [39]: Non-Toxic

OCCN1CCc2nc(OCc3cccc(-c4ccccc4Cl)c3F)ccc2C1
IC50 [1]: 101 nM

CC(C(=O)O)N1CCc2nc(OCc3cccc(-c4ccccc4F)c3Cl)ccc2C1 (centres undefined)
IC50 [1]: 31.3 nM

Cc1c(COc2ccc3c(n2)CCN(CCO)C3)cccc1-c1ccccc1Cl
IC50 [1]: 216 nM
